Test results from US9149465B2, “Isoxazolines as inhibitors of fatty acid amide hydrolase” (Infinity Pharmaceuticals, Inc., priority 2009, dated 2015).

Target: T1, human FAAH (Homo sapiens, UniProt O00519)
T1 construct: host or cells: COS-7 cells, transient transfection; 13,000 g membrane fraction solubilised in 1% Triton X-100
T1 sequence (O00519 1-579): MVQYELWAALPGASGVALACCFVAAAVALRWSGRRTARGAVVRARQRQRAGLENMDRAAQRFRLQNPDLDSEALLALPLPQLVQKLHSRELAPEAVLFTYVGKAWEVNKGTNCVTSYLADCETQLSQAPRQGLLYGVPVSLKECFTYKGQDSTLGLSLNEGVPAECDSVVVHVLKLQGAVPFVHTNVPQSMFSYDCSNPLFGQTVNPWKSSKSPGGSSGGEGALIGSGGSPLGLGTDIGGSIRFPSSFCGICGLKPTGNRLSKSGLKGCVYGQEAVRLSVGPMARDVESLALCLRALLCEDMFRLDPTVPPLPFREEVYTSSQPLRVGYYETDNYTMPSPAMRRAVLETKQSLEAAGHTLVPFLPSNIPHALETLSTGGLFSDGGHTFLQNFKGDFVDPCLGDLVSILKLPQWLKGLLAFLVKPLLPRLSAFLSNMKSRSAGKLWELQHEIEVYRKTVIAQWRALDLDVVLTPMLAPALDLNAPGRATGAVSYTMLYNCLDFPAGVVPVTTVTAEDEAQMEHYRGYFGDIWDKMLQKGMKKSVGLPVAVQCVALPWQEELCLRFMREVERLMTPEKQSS
Experiment: Inhibition of human FAAH (AMC arachidonoyl amide fluorescence assay)
Assay type: biochemical
Details: inhibitor preincubated 30 minutes at room temperature; 20 μM AMC arachidonoyl amide; 4 hours; read-out: Activity (Ki, inhibitors of human FAAH)
Method: Human FAAH Preparation: COS-7 cells were split the day before, 1:5 into 150 mm x […] cell culture dishes (Corning Inc., Cat. No. 430599). Transient transfection took place at 30-40% confluency according to FuGENE 6 Transfection Reagent (Roche, Cat. No. 11814 443 001).
Transfection Procedure: The FuGENE transfection 6 reagent (45 uL) was added to 1410 μL of media (DMEM, serum free without pen/strep) in a 15 mL conical tube and incubated at room temp for 5 minutes, followed by the addition of FAAH plasmid DNA (15 μg) (OriGene Cat. No. TC119221, Genbank Accession No. NM_001441.1, 0.67 ug/uL) and a further incubation of 15 minutes at room temperature. The resulting solution was added into one dish of 30-40% confluent COS-7 cells in a drop-wise manner. The COS-7 cell dish was subsequently incubated for 48 hours. The cells are then harvested.
Harvest procedure: Media was aspirated from the dishes and the cells rinsed with 10 mL PBS. The PBS was removed and 3 mL of PBS added to the dish. The dish was scraped to resuspend the cells, and the subsequent cell suspension collected into a 15 mL conical tube. The cells were pelleted by centrifugation at 1200 rpm for 5 minutes in a bench top centrifuge. PBS was removed and the cell pellet snap frozen in liquid nitrogen and stored at −80° C.
COS-7 cells —FAAH purification: • (1) Fractionation: Frozen cell pellets from transient transfections were thawed on ice and resuspended in 12.5 mM Hepes pH 8.0, 100 mM NaCl, 1 mM EDTA (10 mL/0.2 g cell pellet). The pellets were dounce homogenized and then sonicated to produce cell extract. The cell extract was subsequently centrifuged at 1000 g to remove cellular debris. The pellet was discarded and the supernatant centrifuged at 13,000 g for 20 minutes. The pellet contained membrane bound FAAH. The supernatant was discarded and the pellet resolubilized. • (2) Re-solubilization: The fraction of interest, (13,000 g, membrane fraction) was re-suspended in 2.3 mL re-suspension buffer (20 mM Hepes pH 7.8, 10% v/v Glycerol, 1 mM EDTA, 1% Triton X-100) and the sample incubated on ice for 1 hour and then centrifuged to remove any particulate matter. The supernatant containing solubilized human FAAH was aliquoted and snap frozen in liquid nitrogen and stored at −80° C. until use. • (3) Characterization: Protein Concentration determined by Bradford assay. • SDS gel and Western blot to confirm presence of FAAH • FAAH activity assay • Km determination-96-well assay • Linear dependence—96-well assay • Standard compound Ki determination—384-well assay
Human FAAH assay; Experimental Protocol: A 0.1 mg/mL Human FAAH solution was made up in FAAH reaction buffer, and 24 ul pipeted into a 384 well plate. To this was added 1 μL of a 3 fold serially diluted inhibitor from a DMSO stock solution. The FAAH solution and inhibitor were incubated for 30 minutes at room temperature. The FAAH reaction was initiated by the addition of 25 μL of 40 μM AMC Arachidonoyl Amide in FAAH reaction buffer, yielding a final reaction human FAAH preparation concentration of 0.05 mg/ml and AMC-Arachidonoyl substrate concentration of 20 μM, reaction volume 50 μL. The reaction was allowed to proceed for 4 hours at room temperature. The reaction was stopped by the addition of 25 μL 12 μM a-ketoheterocycle (Cayman Chemicals, catalogue #10435). The microtiter plate was read in the envision plate reader.
The raw fluorescence was plotted on the y axis and the inhibitor concentration on the x axis to give a dose response inhibition curve. The data was fitted to a single site competitive inhibition equation, fixing the Km for the human enzyme to 12 μM and 9 μM respectively.

SMILES | Ki [nM]
BrC1=NOC(c2ccc(Oc3ccccc3)cc2)C1 (single isomer, unassigned) [I-10] | ≤ 100
COC(=O)c1cccc(-c2ccc(OC3=NOC(c4ccc(OC(F)(F)F)cc4)C3)cn2)c1 (racemic) [I-83] | 100 to 1000
O=C(NCc1ccccc1)c1ccc([C@H]2CC(Oc3ccc(C(=O)O)nc3)=NO2)cc1 (racemic) [I-215] | 100 to 1000
COC(=O)c1cccc(OC2=NOC(c3ccc(Oc4ccccc4)cc3)C2)c1 (racemic) [I-61] | ≤ 100
Cc1ccc(OC2=NOC(c3ccc(Oc4ccccc4)cc3)C2)cn1 (single isomer, unassigned) [I-40] | ≤ 100
CN(C)C(=O)c1ccc([C@H]2CC(Br)=NO2)cc1 (racemic) [I-203] | ≤ 100
Fc1ccccc1OC1=NOC(c2ccc(Oc3ccccc3)cc2)C1 (racemic) [I-59] | 100 to 1000
BrC1=NO[C@@H](c2ccc3c(c2)OCO3)C1 (racemic) [I-16] | ≤ 100
COC(=O)CNC(=O)c1ccc(OC2=NOC(c3ccc(OC(F)(F)F)cc3)C2)cn1 (racemic) [I-105] | ≤ 100
FC(F)(F)C1(c2ccc(Oc3ccccc3)cc2)CC(Br)=NO1 (racemic) [I-130] | 100 to 1000
Nc1ccc(OC2=NOC(c3ccc(Oc4ccccc4)cc3)C2)cn1 (centres unmarked) [I-93] | ≤ 100
FC(F)(F)Oc1ccc(C2CC(Oc3cncnc3)=NO2)cc1 (racemic) [I-112] | ≤ 100
COc1ncc(OC2=NOC(c3ccc(OC(F)(F)F)cc3)C2)cc1F (racemic) [I-136] | 100 to 1000
CC1C(Br)=NOC1c1ccc(Oc2ccccc2)cc1 (centres unmarked) [I-82] | 100 to 1000
O[C@@H](CNC1=NOC(c2ccc(OC(F)(F)F)cc2)C1)c1ccccc1 (mixture of isomers) [I-246] | ≥ 1000
c1ccc(Oc2ccc(C3CC(Oc4cncnc4)=NO3)cc2)cc1 (single isomer, unassigned) [I-41] | ≤ 100
CN(CC(=O)O)C1=NOC(c2ccc(Oc3ccccc3)cc2)C1 (racemic) [I-244] | 100 to 1000
c1ccc(Oc2ccc(C3CC(Oc4cccnc4)=NO3)cc2)cc1 (single isomer, unassigned) [I-37] | ≤ 100
CCCCOc1ccc([C@H]2CC(Br)=NO2)cc1 (racemic) [I-20] | ≤ 100

SMILES | Ki [nM]
FC(F)(F)Oc1ccc(C2CC(Oc3cncc(Br)c3)=NO2)cc1 (racemic) [I-71] | ≤ 100
O[C@H](CNC1=NOC(c2ccc(Oc3ccccc3)cc2)C1)c1ccccc1 (mixture of isomers) [I-245] | ≥ 1000
CN(C)S(=O)(=O)c1ccc(OC2=NOC(C)(c3ccc(OC(F)(F)F)cc3)C2)cc1 (racemic) [I-235] | ≥ 1000
N#Cc1ccccc1OC1=NOC(c2ccc(Oc3ccccc3)cc2)C1 (single isomer, unassigned) [I-28] | ≥ 1000
FC(F)(F)c1ccc(C2CC(Oc3cncnc3)=NO2)cc1 (racemic) [I-168] | 100 to 1000
COC(=O)c1cncc(OC2=NOC(c3ccc(Oc4ccccc4)cc3)C2)c1 (single isomer, unassigned) [I-39] | ≤ 100
CN(C)S(=O)(=O)c1ccc([C@H]2CC(Br)=NO2)cc1 (racemic) [I-206] | ≤ 100
CC(C)CS(=O)(=O)c1ccc(OC2=NOC(c3ccc(OC(F)(F)F)cc3)C2)cn1 (racemic) [I-184] | 100 to 1000
CS(=O)(=O)c1ccc(OC2=NOC(c3ccc(Oc4ccccc4)cc3)C2)cc1 (single isomer, unassigned) [I-30] | ≤ 100
CS(=O)(=O)c1ccc(OC2=NOC(c3ccc(Oc4ccccc4)cc3)C2)cn1 (racemic) [I-197] | ≤ 100
CN(C)C(=O)c1ccc(OC2=NOC(c3ccc(Oc4ccccc4)cc3)C2)cn1 (racemic) [I-111] | ≤ 100
FC(F)(F)Oc1ccc(C2CC(Oc3ccc(-c4ccco4)nc3)=NO2)cc1 (racemic) [I-186] | ≤ 100
CNC(=O)c1ccc([C@H]2CC(Br)=NO2)cc1 (racemic) [I-204] | 100 to 1000
O=S(=O)(c1ccc([C@H]2CC(Br)=NO2)cc1)N1CCOCC1 (racemic) [I-205] | ≤ 100
Fc1ccc(OC2=NOC(c3ccc(OC(F)(F)F)cc3)C2)cc1-c1nnco1 (racemic) [I-226] | ≤ 100
BrC1=NOC(c2ccccc2)C1 (single isomer, unassigned) [I-1] | 100 to 1000
Cc1nnc(-c2ccc(OC3=NOC(C)(c4ccc(OC(F)(F)F)cc4)C3)cn2)o1 (racemic) [I-156] | ≤ 100
O=C(O)c1cncc(OC2=NOC(c3ccc(OC(F)(F)F)cc3)C2)c1 (racemic) [I-55] | ≥ 1000
CCCCOc1ccc([C@H]2CC(Oc3ccc(C(=O)O)nc3)=NO2)cc1 (racemic) [I-138] | ≤ 100

SMILES | Ki [nM]
FC(F)(F)c1ccc(C2CC(Oc3ccc(Br)nc3)=NO2)cc1 (racemic) [I-216] | 100 to 1000
FC(F)(F)Oc1ccc(C2CC(Oc3ccc(-c4nccs4)nc3)=NO2)cc1 (racemic) [I-162] | ≤ 100
FC(F)(F)Oc1ccc(C2CC(Oc3cccc(-c4nnco4)c3)=NO2)cc1 (racemic) [I-258] | ≤ 100
C#CCOc1ccc([C@H]2CC(Oc3ccc(C(=O)O)nc3)=NO2)cc1 (racemic) [I-145] | ≤ 100
CC(C)(C)OC(=O)Nc1ccc(OC2=NOC(c3ccc(Oc4ccccc4)cc3)C2)cn1 (racemic) [I-92] | ≥ 1000
NS(=O)(=O)c1ccc(OC2=NOC(c3ccc(Oc4ccccc4)cc3)C2)cc1 (racemic) [I-90] | ≤ 100
Cc1ccc(OC2=NOC(c3ccc(Oc4ccccc4)cc3)C2)cc1F (single isomer, unassigned) [I-31] | ≥ 1000
CSc1ncc(OC2=NOC(c3ccc(OC(F)(F)F)cc3)C2)cn1 (racemic) [I-132] | 100 to 1000
c1ccc(-c2ccc([C@H]3CC(Oc4cccnc4)=NO3)cc2)cc1 (racemic) [I-101] | ≤ 100
COC(=O)CCc1ccc(OC2=NOC(c3ccc(Oc4ccccc4)cc3)C2)cn1 (racemic) [I-98] | ≤ 100
CNS(=O)(=O)c1ccc([C@H]2CC(Br)=NO2)cc1 (racemic) [I-207] | ≤ 100
O=S(=O)(c1ccc([C@H]2CC(Br)=NO2)cc1)N1CCCC1 (racemic) [I-211] | ≤ 100
O=C(O)c1ccc(OC2=NOC(c3ccc(Oc4ccccc4)cc3)C2)cc1 (racemic) [I-147] | ≤ 100
Cc1nnc(-c2cc(F)cc(OC3=NOC(c4ccc(OC(F)(F)F)cc4)C3)c2)o1 (racemic) [I-224] | ≤ 100
CC1(c2ccc(OC(F)(F)F)cc2)CC(Oc2ccc(C(=O)O)nc2)=NO1 (racemic) [I-113] | ≤ 100
O=C(O)c1cccc(OC2=NOC(c3ccc(OC(F)(F)F)cc3)C2)c1 (racemic) [I-176] | ≥ 1000
COc1ccc([C@H]2CC(Br)=NO2)cc1 (racemic) [I-6] | ≤ 100
N#Cc1ccc(OC2=NOC(c3ccc(OC(F)(F)F)cc3)C2)cn1 (racemic) [I-178] | 100 to 1000
